The results in this text go back to ChEMBL document CHEMBL1145422, “Spongian diterpenoids from the sponge Spongia (Heterofibria) sp” (2007).

This experiment is described as follows: Effect on lysosomal activation in mouse splenocytes at 100 ug/mL relative to control. It is filed as functional.

With `CC(=O)OC[C@@]1(C)CCC[C@]2(C)[C@H]3CCc4cocc4[C@]3(C)CC[C@@H]12`, the Activity stood at 130%.
`CC(=O)OC[C@]1(C)[C@@H]2CC[C@@]3(C)c4cocc4CC[C@@H]3[C@@]2(C)CC[C@@H]1OC(C)=O` registered an Activity of 130%.
